Substitutions are numbered along the chain they refer to.
Tests used:
hT1R1 E301A = molecular target: T1, hT1R1 E301A (Homo sapiens, UniProt Q7RTX1, E301A); assay: Mutagenesis study, hT1R1 mutant E301A; format: cell-based; details: E301 mutant, FIG. 11
T1 construct: expressed in transfected cells; host or cells: HEK293, transient transfection
T1 sequence (Q7RTX1 21-841 E301A): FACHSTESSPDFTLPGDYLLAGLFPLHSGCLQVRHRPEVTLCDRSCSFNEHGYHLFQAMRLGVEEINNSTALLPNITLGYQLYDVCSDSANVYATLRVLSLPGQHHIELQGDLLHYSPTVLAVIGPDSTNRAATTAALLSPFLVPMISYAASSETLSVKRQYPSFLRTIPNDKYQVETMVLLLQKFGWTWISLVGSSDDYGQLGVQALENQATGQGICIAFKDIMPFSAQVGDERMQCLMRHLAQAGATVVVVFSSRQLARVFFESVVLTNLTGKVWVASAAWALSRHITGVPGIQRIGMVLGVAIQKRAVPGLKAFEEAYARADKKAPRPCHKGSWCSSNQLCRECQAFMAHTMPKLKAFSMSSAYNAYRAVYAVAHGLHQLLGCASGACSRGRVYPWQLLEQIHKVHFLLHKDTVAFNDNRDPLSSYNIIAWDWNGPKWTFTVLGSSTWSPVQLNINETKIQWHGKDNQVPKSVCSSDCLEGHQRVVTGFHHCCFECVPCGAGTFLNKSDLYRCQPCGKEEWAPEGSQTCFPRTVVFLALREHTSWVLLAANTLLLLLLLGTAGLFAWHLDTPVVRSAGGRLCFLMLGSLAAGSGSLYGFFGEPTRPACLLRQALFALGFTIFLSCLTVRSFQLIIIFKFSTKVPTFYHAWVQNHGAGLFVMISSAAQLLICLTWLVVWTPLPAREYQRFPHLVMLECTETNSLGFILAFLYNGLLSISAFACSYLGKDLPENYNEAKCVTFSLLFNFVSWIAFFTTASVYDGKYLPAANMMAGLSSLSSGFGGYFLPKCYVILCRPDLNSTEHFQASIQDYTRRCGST
T1 sequence (Q923K1 21-858 partner): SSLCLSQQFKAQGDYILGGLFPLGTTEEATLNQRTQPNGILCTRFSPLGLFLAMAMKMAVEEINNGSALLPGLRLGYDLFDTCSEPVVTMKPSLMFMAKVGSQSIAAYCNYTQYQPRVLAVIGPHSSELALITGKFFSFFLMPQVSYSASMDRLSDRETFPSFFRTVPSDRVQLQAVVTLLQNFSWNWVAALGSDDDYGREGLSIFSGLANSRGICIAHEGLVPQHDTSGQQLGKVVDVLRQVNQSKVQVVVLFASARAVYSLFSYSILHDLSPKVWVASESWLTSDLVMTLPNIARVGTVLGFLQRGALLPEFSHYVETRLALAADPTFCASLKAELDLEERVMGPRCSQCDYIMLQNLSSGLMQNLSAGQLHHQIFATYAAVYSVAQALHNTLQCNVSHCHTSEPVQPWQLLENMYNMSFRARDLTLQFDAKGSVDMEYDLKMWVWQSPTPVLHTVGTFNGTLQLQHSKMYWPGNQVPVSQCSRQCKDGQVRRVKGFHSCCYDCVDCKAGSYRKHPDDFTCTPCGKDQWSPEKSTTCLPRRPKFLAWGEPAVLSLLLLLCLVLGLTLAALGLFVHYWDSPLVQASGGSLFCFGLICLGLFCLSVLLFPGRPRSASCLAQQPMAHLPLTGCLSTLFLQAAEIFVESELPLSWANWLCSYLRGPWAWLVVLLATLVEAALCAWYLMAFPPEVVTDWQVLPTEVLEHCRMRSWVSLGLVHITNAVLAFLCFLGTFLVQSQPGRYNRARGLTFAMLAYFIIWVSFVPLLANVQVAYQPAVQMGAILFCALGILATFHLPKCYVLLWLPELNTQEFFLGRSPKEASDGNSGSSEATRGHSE
Description: (§1) In order to further define the interaction sites of umami stimuli, we performed site-directed mutagenesis on human T1R1 VFT. The mutagenesis was done using the routine PCR-based method. […] were transiently transfected into HEK293 cell together with the rat T1R3 wild type cDNA, and the transfected cells were characterized using an automated FLIPR machine or a calcium imaging system as described in our previous patent applications.

hT1R1 R277A = molecular target: T2, hT1R1 R277A (Homo sapiens, UniProt Q7RTX1, R277A); assay: Mutagenesis study, hT1R1 mutant R277A; format: cell-based; details: R277 mutation
T2 construct: expressed in transfected cells; host or cells: HEK293, transient transfection
T2 sequence (Q7RTX1 21-841 R277A): T1 sequence (Q7RTX1 21-841 E301A) with R257A, A281E
T2 sequence (Q923K1 21-858 partner): T1 sequence (Q923K1 21-858 partner)
Description: as §1

## N[C@@H](CCC(=O)O)C(=O)O [L-Glu, L-glutamate]
hT1R1 E301A
  activity against L-Glu: significant reduced activity

## Nc1nc2c(ncn2[C@@H]2O[C@H](COP(=O)(O)O)[C@@H](O)[C@H]2O)c(=O)[nH]1 [GMP, guanosine-5′-monophosphate]
hT1R1 R277A
  enhancement activity of GMP: similarly affected

Reference: US20080306076A1, “MODULATION OF CHEMOSENSORY RECEPTORS AND LIGANDS ASSOCIATED THEREWITH” (SENOMYX, INC., priority 2007, published 2008)
